Experimental data taken from patent publication US20230141887A1, “CRYSTAL FORM OF DIAZASPIROPYRAN COMPOUND” (MEDSHINE DISCOVERY INC., priority 2020, published 2023).
Positions count from the first letter of the chain named.

Assays:
[1] = In vivo pharmacokinetic assay in dogs; design: species or system Male Beagle dogs; settings: 1 mg/kg
Procedure: Male Beagle dogs older than 6 months of age were selected. On the day of the assay, the animals were given the corresponding compound by single injection in the cephalic or saphenous vein in a volume of 1 mL/kg for the intravenous group; and by single gavage in a volume of 5 mL/kg for the oral group. The animals were weighed before administration and the dosing volume of the compound was calculated based on their body weight. About 0.5 mL of whole blood was collected from the cephalic or saphenous vein at each time point to prepare plasma for determination of concentrations by high performance liquid chromatography-tandem mass spectrometry (LC-MS/MS). Plasma concentrations were processed using non-compartment model of WinNonlin™ Version 6.3 or above (Pharsight, Mountain View, Calif.) pharmacokinetic software, and pharmacokinetic parameters were calculated using the linear log trapezoidal method.

[2] = biological target: T1, FLT3(D835V) (Homo sapiens, UniProt P36888, D835V); format: binding
T1 sequence (P36888 27-993 D835V): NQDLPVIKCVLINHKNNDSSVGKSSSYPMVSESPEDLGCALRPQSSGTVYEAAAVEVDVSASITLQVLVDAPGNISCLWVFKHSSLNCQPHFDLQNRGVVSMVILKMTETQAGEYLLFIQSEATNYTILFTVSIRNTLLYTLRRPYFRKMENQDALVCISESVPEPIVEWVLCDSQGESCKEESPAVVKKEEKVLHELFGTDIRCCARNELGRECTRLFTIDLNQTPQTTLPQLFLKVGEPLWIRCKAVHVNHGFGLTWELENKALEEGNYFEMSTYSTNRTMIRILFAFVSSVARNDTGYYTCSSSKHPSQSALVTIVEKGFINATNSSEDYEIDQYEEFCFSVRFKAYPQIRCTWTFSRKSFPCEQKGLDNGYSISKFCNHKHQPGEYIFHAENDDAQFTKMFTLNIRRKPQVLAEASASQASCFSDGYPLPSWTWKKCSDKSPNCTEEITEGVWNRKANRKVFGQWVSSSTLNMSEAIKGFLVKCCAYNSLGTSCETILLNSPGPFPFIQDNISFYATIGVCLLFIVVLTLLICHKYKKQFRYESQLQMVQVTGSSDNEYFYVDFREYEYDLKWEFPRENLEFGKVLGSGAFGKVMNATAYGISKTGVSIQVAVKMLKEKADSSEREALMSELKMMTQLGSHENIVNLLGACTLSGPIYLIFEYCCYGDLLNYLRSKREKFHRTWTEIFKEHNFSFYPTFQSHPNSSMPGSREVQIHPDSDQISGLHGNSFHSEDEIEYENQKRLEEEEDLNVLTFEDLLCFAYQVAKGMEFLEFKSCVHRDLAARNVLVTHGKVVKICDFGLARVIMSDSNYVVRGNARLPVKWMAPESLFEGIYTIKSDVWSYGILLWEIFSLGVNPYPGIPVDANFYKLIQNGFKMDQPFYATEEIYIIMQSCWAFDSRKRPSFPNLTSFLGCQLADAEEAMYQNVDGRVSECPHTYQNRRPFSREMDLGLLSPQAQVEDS

[3] = biological target: T2, FLT3(N841I) (Homo sapiens, UniProt P36888, N841I); format: binding
T2 sequence (P36888 27-993 N841I): T1 sequence (P36888 27-993 D835V) with V809D, N815I

CCc1nc(C(N)=O)c(Nc2ccc(N3CCC4(CCN(C)CC4)CC3)c(C)c2)nc1NC1CCOCC1.O=C(O)C(F)(F)F
AUC0-last ([1]; Injection): 765 nm·h
Cl ([1]; Injection): 34.2 mL/min/kg
T1/2 ([1]; Injection): 9.83 h
Vdss ([1]; Injection): 28.9 L/kg
Cmax ([1]; Oral): 21.1 nM
F% ([1]; Oral): 41.6%
Tmax ([1]; Oral): 4.00 h
Kd [2]: 0.23 nM
Kd [3]: 5.4 nM
